Results published in PMC12059926, “Development and Biological Assessment of Thiazole-Based Pyridines for Targeted Therapy in Lung Cancer” (ACS Omega, 2025).
Converted amounts (≈) assume the structure as drawn.

What was measured:
[1] = tested on: L929 (mouse fibroblast cell line); assay: MTT cytotoxicity assay on L929 healthy cells; type: cell-based; conditions: mean ± SD
Experimental: (§1) The synthesized final compounds (2a–2o) were initially evaluated for their cytotoxic effects to assess their anticancer activity against A549 lung cancer cells. The healthy cell line L929 (mouse fibroblast cell line) was also used to determine the selective antiproliferative properties of the compounds.
(§2) The human lung cancer cell line A549 and mouse fibroblast cell line L929 were used to evaluate the cytotoxicity of the compounds. Cells propagated under the specified conditions were cultured in 96-well plates at 5 × 10^3 cells/well. […] At the end of the incubation period, cell viability was determined by measuring the absorbance of the purple color formed by the breakdown of the MTT dye at 540 nm. Half-maximal inhibitory concentrations (IC50) were determined based on the tested concentrations of the compounds. The tests were triplicated.[38] The MTT assay for cytotoxicity of compounds was determined according to previously published procedures.[39],[40]
(§3) The concentration that inhibits 50% of the cell population was calculated as IC50 using GraphPad Prism 9.0 statistical software program, and standard deviation values were analyzed. Data are expressed as mean ± SD. Comparisons were made using one-way ANOVA for continuous variables with normal distribution, and Tukey’s test was used for post hoc analysis of group differences. p < 0.05 was considered statistically significant.
(§4) The cell viability value of the control group was considered 100%, and all viability values were calculated using the formula below. The experiment was performed in 3 replicates. [drawing 2]

[2] = tested on: A549 lung cancer cell line; assay: MTT cytotoxicity assay on A549 lung cancer cells; type: cell-based, human; conditions: for IC50: Homo sapiens; for SI: selectivity index: L929 versus A549
Experimental: as §1, §2, §3, §4

[3] = tested on: caspase-3 in A549 cells; assay: Caspase-3 activation; type: cell-based, human; conditions: 24 h
From the text: Caspases can take part in the cell death mechanism through both intrinsic and extrinsic pathways, with caspase-3 being the first enzyme activated in the apoptosis process.[24] Activation of the caspase-3 enzyme by the compounds, indicated as caspase-3 positive, and inhibition, indicated as caspase-3 negative, are presented in percentage terms in Table 5.
A Spectrofluorometric Caspase-3 assay kit (BD Pharmingen, Franklin Lakes, NJ) was used for determining Caspase-3 activation by measuring the caspase-3 or DEVD-cleaving activity. Initially, A549 cells at a concentration of 1 × 10^6 cells/mL underwent a washing process using phosphate-buffered saline (PBS). Subsequently, they were suspended in a cold solution known as cell lysis buffer and kept on ice for a duration of 30 min. […] In each reaction, a mixture of […] of diluted Ac DEVD-AMC (a synthetic tetrapeptide fluorogenic substrate used to measure caspase-3 activity) and 0.2 mL of 1x HEPES buffer was added to a well. Then, […] of cell lysate was introduced into each well/reaction. The reaction mixtures were incubated at 37 °C for 1 h. The amount of AMC released from Ac-DEVD-AMC was measured by using a microplate reader (PerkinElmer/Victor/X3) with an excitation wavelength of 380 nm and an emission wavelength of 460 nm. Apoptotic cell lysates containing active caspase-3 produced significant emissions compared to controls. In addition, the AMC emission of nonapoptotic control cell lysates was taken as 100%, and the emission of other cell lysates was measured relative to the emission of control cells. All experiments were repeated in duplicate. Active compounds, which are the most cytotoxic compounds, were evaluated for caspase-3 activation using previously published procedures.[40],[44]
(§5) The apoptotic results (Annexin V-FITC, Caspase 3, JC-1) were evaluated by flow cytometry using FACS Diva Version 6.1.1. software, and the apoptotic cells were determined as the percentage of cells.

[4] = tested on: A549 cells; assay: Annexin V-FITC/propidium iodide apoptosis detection by flow cytometry; type: cell-based, human; conditions: IC50 dose, 24 h
Experimental: To determine whether the antiproliferative effects of the compounds on the A549 cell line proceed through the apoptotic or necrotic pathway, the assay was performed with Annexin V-FITC/propidium iodide dyes in a flow cytometry device. […] At least 10,000 cells were analyzed, and quadrant analysis was performed. The results are presented as early apoptotic cells, late apoptotic cells, viable cells, and necrotic cells in Table 3, and as a diagram in Figure 1. In control cells, the number of viable cells was 92.04%, necrotic cells were 1.16%, early apoptotic cells were 3.43%, and late apoptotic cells were 3.28%. […] Among the compounds, 2m was the most apoptosis-inducing compound, with 14.99% early apoptotic and 10.63% late apoptotic cell percentages. […] This compound was followed by compound 2c with a 13.79% early apoptotic cells and 4.03% late apoptotic cells. Among the compounds, compound 2o induced early apoptosis the least (1.87%) and necrosis the most (3.10%). […] Nonapoptotic cell death methods, such as necroptosis and pyroptosis, can be considered for the aforementioned compounds.
The compounds were treated with A549 cells at IC50 doses, and early and late apoptosis, necrosis, and viable cell ratios were determined as percentages. Cells were seeded at 37 °C in humidified air containing 5% CO2 with 10^5 cells/plate in each well. A549 cells were collected, washed twice with ice-cold PBS, and resuspended in 100 μL of binding buffer. Five μL (5 μg/mL) of Annexin V-FITC and PI were added to the cells and incubated for 15 min in the dark at room temperature (20–25 °C). Then, 400 μL of binding buffer was added to the mixture samples and analyzed on a flow cytometer. Quadrant analyses were also presented.[41] Compounds 2a, 2b, 2c, 2j, 2m, and 2o, with a satisfactory cytotoxic profile, were examined via flow cytometry to assess the apoptosis/necrosis cell ratio using previously published procedures.[42]
as §5

[5] = tested on: A549 cells; assay: Mitochondrial membrane potential (JC-1) by flow cytometry; type: cell-based, human; conditions: for % Mitochondrial membrane depolarized cells / % Mitochondrial membrane polarized cells: IC50 dose, JC-1
From the text: The mitochondrial membrane potential provides information about the state of electrons during ATP production through oxidative phosphorylation, which is essential for cellular viability. Mitochondrial dysfunction occurs when this electrical regulation is disturbed and can occur in various diseases and the process of apoptosis.[23] […] Compounds 2m, 2g, and 2c followed this, with depolarization levels exceeding 21%. The mitochondrial dysfunction in compound 2m can be considered a contributing factor to apoptosis.
Cell staining with JC-1 was performed according to the manufacturer’s recommendations for the BD , Pharmingen Flow Cytometry Kit. […] Compounds were applied at IC50 doses of no more than 1 × 10^6/mL per well in 6-well plates. After treatment, each cell suspension was transferred to a 15 mL polystyrene centrifuge tube, the cells were centrifuged at 400g for 5 min, and the supernatant was removed. 0.5 mL of freshly prepared working solution was added to each pellet, and the solution was vortexed. The test cells were soaked in JC-1 working solution at 37 °C for 10–15 min, and the cells were washed twice. After centrifugation at 400g for 5 min, each cell pellet was suspended in 0.5 mL of 1X assay buffer and vortexed. The cells were then analyzed by flow cytometer.
as §5

[6] = target: T1, MMP-9 enzyme (Homo sapiens, UniProt P14780); assay: MMP-9 enzyme inhibition, colorimetric kit; type: biochemical; conditions: for inhibition at 100 µM: compounds at 100 μM
T1 construct: purchased Enzo Life Sciences Inc. (Farmingdale, NY, USA)
Experimental: Compounds (2a–2o) were tested to determine their MMP-9 enzyme inhibition potential. The compounds were tested at a concentration of 100 μM, and the standard molecule NNGH at a concentration of 1.3 μM.
MMP-9 inhibition was assessed using a colorimetric kit from Enzo Life Sciences Inc. (Farmingdale, NY, USA), following procedures similar to those described in previous studies.[25],[26] A thiopeptide was used as a chromogenic substrate (Ac-PLG-[2-mercapto-4-methyl-pentanoyl]-LG-OC2H5). 2-Nitro-5-thiobenzoic acid, formed by the reaction of the sulfhydryl group produced as a result of hydrolysis of the thioester by the MMP-9 enzyme and then reaction with DTNB [5,5′-dithiobis(2-nitrobenzoic acid), Ellman’s reagent], gives absorbance at 412 nm in a microplate reader (BioTek, PowerWave, Gen5 software, Winooski, VT, USA). Based on these absorptions, MMP-9 inhibition concentrations were determined. The assays were performed in triplicate. NNGH (N-isobutyl-N-(4-methoxyphenylsulfonyl)glycyl hydroxamic acid) was used as a control inhibitor. Data were shown as mean ± SD. The inhibitor % remaining activity of MMPs was calculated using the following equation:
Inhibitor% activity remaining = (V inhibitor/V control) × 100.
The inhibition (percent) of MMPs was calculated using the following equation: [drawing 1]

T1 sequence (P14780 107-444 limits assumed): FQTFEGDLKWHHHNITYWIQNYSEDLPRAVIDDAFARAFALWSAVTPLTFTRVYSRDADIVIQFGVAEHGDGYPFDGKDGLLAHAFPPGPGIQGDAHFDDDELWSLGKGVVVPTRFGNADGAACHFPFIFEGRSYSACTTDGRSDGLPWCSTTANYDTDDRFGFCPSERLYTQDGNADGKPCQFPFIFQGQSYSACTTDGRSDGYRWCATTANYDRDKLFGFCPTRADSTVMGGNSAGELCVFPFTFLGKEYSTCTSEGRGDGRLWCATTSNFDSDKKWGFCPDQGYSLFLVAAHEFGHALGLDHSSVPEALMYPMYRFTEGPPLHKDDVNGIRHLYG

| Compound | IC50 [1] [µg/mL] | IC50 ([2]; A549 cells, MTT, mean ± SD) [µg/mL] | SI: selectivity index [2] | % Caspase-3 negative cells [3] [%] | % Caspase-3 positive cells [3] [%] | Q1-UL necrotic cells [4] [%] | Q1-UR late apoptotic cells [4] [%] | % Mitochondrial membrane depolarized cells [5] [%] | % Mitochondrial membrane polarized cells [5] [%] | further results |
| --- | --- | --- | --- | --- | --- | --- | --- | --- | --- | --- |
| Oc1ccc(-c2csc(NN=Cc3ccccn3)n2)cc1O [Compound 2d, 4-(2-(2-(Pyridin-2-ylmethylene)hydrazinyl)thiazol-4-yl)benzene-1,2-diol] | 9.2 ± 0.36 (≈ 29.5 µM) | 4.7 ± 0.6 (≈ 15 µM) | 1.96 |  |  |  |  |  |  |  |
| Clc1ccc(-c2csc(NN=Cc3cccnc3)n2)cc1Cl [Compound 2j, 4-(3,4-Dichlorophenyl)-2-(2-(pyridin-3-ylmethylene)hydrazinyl)thiazole] | 9.76 ± 0.45 (≈ 27.9 µM) | 6.58 ± 0.35 (≈ 18.8 µM) | 1.48 | 97.47 | 0.96 | 1.68 | 3.31 | 15.40 | 84.75 | Q1-LL viable cells [4]: 91.05%; Q1-LR early apoptotic cells [4]: 3.96%; apoptosis induction, result in words [4]: did not significantly induce apoptosis |
| COc1ccc(OC)c(-c2csc(NN=Cc3ccncc3)n2)c1 [Compound 2k, 4-(2,5-Dimethoxyphenyl)-2-(2-(pyridin-4-ylmethylene)hydrazinyl)thiazole] | 8.59 ± 0.32 (≈ 25.2 µM) | 6.07 ± 0.31 (≈ 17.8 µM) | 1.42 |  |  |  |  |  |  | MMP-9 inhibition, result in words ([6]; compared with 2f): less active than 2f (2,5-dimethoxypehnyl) or inactive |
| CS(=O)(=O)c1ccc(-c2csc(NN=Cc3ccncc3)n2)cc1 [Compound 2l, 4-(4-(Methylsulfonyl)phenyl)-2-(2-(pyridin-4-ylmethylene)hydrazinyl)thiazole] | 6.74 ± 0.41 (≈ 18.8 µM) | 4.7 ± 0.3 (≈ 13.1 µM) | 1.43 |  |  |  |  |  |  |  |
| Clc1ccc(-c2csc(NN=Cc3ccncc3)n2)cc1Cl [Compound 2o, 4-(3,4-Dichlorophenyl)-2-(2-(pyridin-4-ylmethylene)hydrazinyl)thiazole] | 51.9 ± 0.58 (≈ 149 µM) | 5.04 ± 0.31 (≈ 14.4 µM) |  | 25.00 | 0.00 | 3.10 | 7.92 | 12.85 | 87.73 | Q1-LL viable cells [4]: 87.11%; Q1-LR early apoptotic cells [4]: 1.87% |
| C(=NNc1nc(-c2ccc(-c3ccccc3)cc2)cs1)c1cccnc1 [Compound 2h, 4-([1,1’-Biphenyl]-4-yl)-2-(2-(pyridin-3-ylmethylene)hydrazinyl)thiazole] | 15.2 ± 0.53 (≈ 42.7 µM) | 9.93 ± 0.42 (≈ 27.9 µM) | 1.53 |  |  |  |  |  |  |  |
| Oc1ccc(-c2csc(NN=Cc3ccncc3)n2)cc1O [Compound 2n, 4-(2-(2-(Pyridin-4-ylmethylene)hydrazinyl)thiazol-4-yl)benzene-1,2-diol] | 4.48 ± 0.68 (≈ 14.3 µM) | 4.23 ± 0.54 (≈ 13.5 µM) | 1.06 |  |  |  |  |  |  | inhibition at 100 µM ([6]; mean ± SD): 19 ± 3.63% |
| N.N.[Cl][Pt][Cl] [Cisplatin, reference compound] |  |  |  | 75.56 | 11.65 | 6.56 | 31.29 | 36.27 | 62.15 | IC50 A549 ([2]; A549 cells, MTT, mean ± SD): 12.65 ± 0.38 µg/mL; total apoptosis (early + late apoptotic cells) [4]: 62.37% |
| Clc1ccc(-c2csc(NN=Cc3ccccn3)n2)cc1Cl [Compound 2e, 4-(3,4-Dichlorophenyl)-2-(2-(pyridin-2-ylmethylene)hydrazinyl)thiazole] | 4.87 ± 0.3 (≈ 13.9 µM) | 4.56 ± 0.31 (≈ 13.1 µM) | 1.07 |  |  |  |  |  |  | inhibition at 100 µM ([6]; mean ± SD): 30.3 ± 2.64% |
| COc1ccc(S(=O)(=O)N(CC(=O)NO)CC(C)C)cc1 [NNGH, N-isobutyl-N-(4-methoxyphenylsulfonyl)glycyl hydroxamic acid, reference compound] |  |  |  |  |  |  |  |  |  | MMP-9 inhibition % ([6]; standard at 1.3 μM, mean ± SD): 93.56 ± 1.78% |
| COc1ccc(OC)c(-c2csc(NN=Cc3cccnc3)n2)c1 [Compound 2f, 4-(2,5-Dimethoxyphenyl)-2-(2-(pyridin-3-ylmethylene)hydrazinyl)thiazole] | 14 ± 0.57 (≈ 41 µM) | 4.04 ± 0.29 (≈ 11.9 µM) |  |  |  |  |  |  |  | inhibition at 100 µM ([6]; mean ± SD): 70.8 ± 2.2% |
| CS(=O)(=O)c1ccc(-c2csc(NN=Cc3ccccn3)n2)cc1 [Compound 2b, 4-(4-(Methylsulfonyl)phenyl)-2-(2-(pyridin-2-ylmethylene)hydrazinyl)thiazole] | 31.2 ± 0.56 (≈ 87.2 µM) | 9.93 ± 0.37 (≈ 27.7 µM) |  | 84.70 | 7.73 | 0.33 | 2.28 | 47.96 | 54.51 | Q1-LL viable cells [4]: 90.44%; Q1-LR early apoptotic cells [4]: 6.95%; apoptosis induction, result in words [4]: did not significantly induce apoptosis; mitochondrial membrane depolarization relative to cisplatin ([5]; versus cisplatin): approximately 1.5 times |
